We go through 7 compounds from EP0573218B1, “4-Carboxyimidazoles as angiotensin II antagonists and their thrapeutic use” (SANKYO COMPANY LIMITED, priority 1992, dated 1993).

Structures are written as SMILES.

This experiment deals with All receptor. The experiment can be described thus: Inhibition of pressor response to intravenous angiotensin II in anaesthetised rats (AII receptor blocking activity). The format is in vivo. The following applies: i.v.; dose inhibiting by fifty percent the pressor response to 50 ng/kg i.v. angiotensin II; angiotensin II injected two minutes after test compound; male Wister-Imamichi rats. On the procedure: Evaluation of All receptor blocking activity by Inhibition of pressor response to angiotensin II
The biological activity of each compound was assessed by determining the dose required to inhibit the pressor response to intravenous angiotensin II by fifty percent (ID50) in rats. Male Wister-Imamichi rats, each weighing 300 to 400 g, were anaesthesized by intraperitoneal injection of 100 mg/Kg of sodium thiobutabarbital [Inactin (trade name)] and two cannulae were inserted: one into the femoral artery for measuring blood pressure and the other into the femoral vein for injecting drugs. Fifty ng/kg of angiotension II were intravenously administered at intervals of about 10 minutes, and the elevation of blood pressure (normally about 50 mmHg) was observed. After constant pressor responses to angiotensin II were obtained, a test compound was intravenously administered. Two minutes later, angiotension II was again injected, and the inhibitory effect of the test compound was estimated. The percent inhibitions of the pressor response to angiotensin II by progressive increase of the test compound was used to calculate the value of ID50. Angiotensin II was used in this test dissolved in 0.5 % bovine serum albumin (BSA) and the test compounds were dissolved in 100% dimethyl sulphoxide (DMSO).
`COCc1nc(C(C)(C)O)c(C(=O)O)n1Cc1ccc(-c2ccccc2-c2nnn[nH]2)cc1` [Example 2, 4-(1-Hydroxy-1-methylethyl)-2-methoxymethyl-1-{4-[2-(tetrazol-5-yl)phenyl]phenyl}methylimidazole-5-carboxylic acid] had an ID50 of 0.0066 mg/kg.
As for `CCOCc1nc(C(C)(C)O)c(C(=O)O)n1Cc1ccc(-c2ccccc2-c2nnn[nH]2)cc1` [Example 6, 2-Ethoxymethyl-4-(1-hydroxy-1-methylethyl)-1-{4-[2-(tetrazol-5-yl)phenyl]phenyl}methylimidazole-5-carboxylic acid], the figure is 0.0059 mg/kg; as for `CCCOCc1nc(C(C)(C)O)c(C(=O)O)n1Cc1ccc(-c2ccccc2-c2nnn[nH]2)cc1` [Example 10, 4-(1-Hydroxy-1-methylethyl)-2-propoxymethyl-1-{4-[2-(tetrazol-5-yl)phenyl]phenyl}methylimidazole-5-carboxylic acid], 0.016 mg/kg.
Consider `COC(C)c1nc(C(C)(C)O)c(C(=O)O)n1Cc1ccc(-c2ccccc2-c2nnn[nH]2)cc1` (stereo not shown) [Example 14, 4-(1-Hydroxy-1-methylethyl)-2-(1-methoxyethyl)-1-{4-[2-(tetrazol-5-yl)phenyl]phenyl}methyl-imidazole-5-carboxylic acid], for which the ID50 worked out at 0.074 mg/kg.
As to `CSCc1nc(C(C)(C)O)c(C(=O)O)n1Cc1ccc(-c2ccccc2-c2nnn[nH]2)cc1` [Example 22, 4-(1-Hydroxy-1-methylethyl)-2-methylthiomethyl-1-{4-[2-(tetrazol-5-yl)phenyl]phenyl}methyl-imidazole-5-carboxylic acid], the ID50 came to 0.025 mg/kg.
In turn, `CSc1nc(C(C)(C)O)c(C(=O)O)n1Cc1ccc(-c2ccccc2-c2nnn[nH]2)cc1` [Example 25, 4-(1-Hydroxy-1-methylethyl)-2-methylthio-1-{4-[2-(tetrazol-5-yl)phenyl]phenyl}methyl-imidazole-5-carboxylic acid] displayed an ID50 of 0.026 mg/kg.
In turn, `CCSc1nc(C(C)(C)O)c(C(=O)O)n1Cc1ccc(-c2ccccc2-c2nnn[nH]2)cc1` [Example 27, 2-Ethylthio-4-(1-hydroxy-1-methylethyl)-1-{4-[2-(tetrazol-5-yl)phenyl]phenyl}methyl-imidazole-5-carboxylic acid] gave an ID50 of 0.019 mg/kg.
